# Assay results from article PMC10681040 (Bioorganic chemistry, 2023).
# Target: human nCDase (extracellular region, residues 99–780) (Homo sapiens, UniProt Q9NR71)
# Assay: RBM biochemical nCDase enzymatic activity assay
# Settings: qualitative; data not shown for valproate, anacardamate, MG149
# Sequence of human nCDase (extracellular region, residues 99–780) (Q9NR71 99-780): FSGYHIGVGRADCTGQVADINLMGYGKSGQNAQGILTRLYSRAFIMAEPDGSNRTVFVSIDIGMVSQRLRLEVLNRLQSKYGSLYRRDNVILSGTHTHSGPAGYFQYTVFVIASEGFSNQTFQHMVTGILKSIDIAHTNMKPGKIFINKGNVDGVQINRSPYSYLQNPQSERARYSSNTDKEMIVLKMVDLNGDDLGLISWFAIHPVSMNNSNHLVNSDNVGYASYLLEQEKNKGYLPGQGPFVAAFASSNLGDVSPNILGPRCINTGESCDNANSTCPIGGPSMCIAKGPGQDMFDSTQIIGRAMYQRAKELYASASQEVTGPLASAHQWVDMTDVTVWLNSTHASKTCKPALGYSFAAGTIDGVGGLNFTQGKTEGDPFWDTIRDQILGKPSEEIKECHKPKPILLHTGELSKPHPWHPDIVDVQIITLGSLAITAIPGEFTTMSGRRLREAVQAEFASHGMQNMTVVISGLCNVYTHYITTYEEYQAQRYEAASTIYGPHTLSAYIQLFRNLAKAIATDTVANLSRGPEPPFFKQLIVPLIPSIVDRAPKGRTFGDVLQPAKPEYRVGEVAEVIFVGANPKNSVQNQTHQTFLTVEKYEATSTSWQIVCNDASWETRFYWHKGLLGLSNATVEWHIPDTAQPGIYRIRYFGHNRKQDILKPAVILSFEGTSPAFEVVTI
row,Compound,nCDase inhibitory activity (in words)
1,CC(/C=C/C(=O)NO)=C\[C@@H](C)C(=O)c1ccc(N(C)C)cc1 [Trichostatin A],nCDase inhibitory activity
2,anacardamate,exhibited nCDase inhibitory activity
3,CCCCCCCc1ccc(CCc2cccc(O)c2C(=O)O)cc1 [MG149],exhibited nCDase inhibitory activity
4,CCCC(CCC)C(=O)O [valproate],exhibited nCDase inhibitory activity
